A short description of the series: BCS classification. As to conditions: based on our experimental results. Type of series: physicochemical.

Structures are written as SMILES.

As to `COc1ccc2c(c1)c(CN1CCN(C)CC1)cn2S(=O)(=O)c1ccccc1Br` [Compound 1, 1-[(2-Bromophenyl)sulfonyl]-5-methoxy-3-[(4-methyl-1-piperazinyl)methyl]-1H-indole dimesylate monohydrate], the BCS classification result is “class I”.

These data come from patent publication US12629365B2, “Pharmaceutical compositions of 5-HT6 receptor antagonist” (SUVEN LIFE SCIENCES LIMITED, priority 2016, dated 2026).
